Measured values taken from US20230372382A1, “USE OF ADENOSINE DIPHOSPHATE RIBOSE FOR ADJUVANT THERAPY WITH RADIATION AND/OR ANTI-CANCER TREATMENT” (PearlsInMires Co., Ltd., priority 2021, published 2023).
Where two headings read alike, the source gives them in different places.

Legend:
HCT116 cells = test: Cell death by combination treatment of ADP-ribose and radiation (MTT); type: cell-based; conditions: HCT116, 16 μM ADP-ribose in combination with 2 Gy radiation, 24 hours, P<0.001; 2 Gy alone about 90.3%
Description: 3×10^3 Brain cancer (U-87MG), lung cancer (H1975), pancreatic cancer (Aspc-1), liver cancer (Hep G2), breast cancer (MDA-MB-231), colon cancer (HCT116), and kidney cancer (Caki-1) cells were cultured in a 96-well plate for 24 hours under conditions of 37° C. and 5% CO2, treated with ADP-ribose or 2 or 5 Gy radiation alone or in combination with ADP-ribose and 2 Gy radiation, and cultured for 24 hours under conditions of 37° C. and 5% CO2 again. Then, 10 μl of 3-(4,5-dimethylthiazol-2-yl)-2,5-diphenyltetrazolium bromide reagent was added to each well and reacted for 1 hour. After the reaction was completed, the reagent was removed, 200 μl of dimethyl sulfoxide was added to each well, and the absorbance was measured to compare the degree of cell death.
3×10^3 HCT116 cells were cultured in a 96-well plate for 24 hours under conditions of 37° C. and 5% CO2, treated with 16 μM of ADP-ribose and 2 or 5 Gy dose of radiation individually or in combination, and cultured for 24 hours under conditions of 37° C. and 5% CO2 again. Then, 10 μl of 3-(4,5-dimethylthiazol-2-yl)-2,5-diphenyltetrazolium bromide reagent was added to each well and reacted for 1 hour. After the reaction was completed, the reagent was removed, 200 μl of dimethyl sulfoxide was added to each well, and the absorbance was measured to confirm cell viability.

[1] = test system: Pancreatic cancer (AsPC-1) cells; test: Xenograft model, combination with radiation, tumor volume; type: in vivo, BALB/c nude mice; conditions: AsPC-1 xenograft
Description: Brain cancer (U-87MG), pancreatic cancer (AsPC-1), breast cancer (MDA-MB-231), or kidney cancer (Caki-1) cells (1×10^7 cells) were inoculated into 5-week-old BALB/c nude mice on the back flank, respectively. Then, when tumors were grown to a volume of approximately 150 mm^3, the mice were divided into three groups: the control group (Control), 2 Gy dose of radiation alone, and a combination administration of 2 Gy dose of radiation+10 mg/kg of ADP-ribose (subcutaneous administration, 3 times a week). The irradiation was performed with an X-Rad 320 irradiator (Precision X-ray, North Branford, CT, USA), wherein the mice were placed by maintaining an appropriate distance from the radiation source for irradiation with a predetermined radiation dose. A lead shield was used to protect the body parts or organs from exposure to radiation, other than the cancerous part of the mouse. The irradiation was performed with a total of 2 Gy of radiation fractionated into two doses of 1 Gy each (for 2 days) at a dose rate of 300 kVp and 150 cGy/min using an X-ray beam filter composed of 12.5 mA and 2.0 mm Al. The tumor size was measured every 6 days using a digital caliper, and the results of changes in tumor volume were compared by the group.
Pancreatic cancer (AsPC-1) cells (1×10^7) were inoculated into 5-week-old BALB/c nude mice on the back flank, and the mice were divided into three groups: the control group (Control), 2 Gy dose of radiation alone, and combination administration of 2 Gy dose radiation+10 mg/kg of ADP-ribose. When the tumors were grown to a volume of approximately 150 mm^3, 2 Gy dose of radiation was irradiated twice at 1 Gy each, and 10 mg/kg of ADP-ribose was injected subcutaneously 3 times a week. The tumor size was measured using a digital caliper, and the results of changes in tumor volume were compared by the group.

[2] = test system: Pancreatic cancer (AsPC-1) cells; conditions: AsPC-1 xenograft
Description: (§1) Brain (U-87MG), lung (H1975), pancreatic (AsPC-1), or liver (Hep G2) cells (1×10^7 cells) were inoculated into 5-week-old BALB/c nude mice on the back flank, respectively. Then, when tumors were grown to a volume of approximately 150 mm^3, the mice were divided into the control group (control), an anti-cancer drug alone treatment group, and a combination treatment group. […] The tumor size was measured every 6 days using a digital caliper, and the results of changes in tumor volume were compared by the group.
The tumor size was measured using a digital caliper, and the results of changes in tumor volume were compared by the group.

Hep G2 cells = test: Cancer cell death verification (MTT cell viability); type: cell-based
Description: 3×10^3 Brain cancer (U-87MG), lung cancer (H1975), pancreatic cancer (Aspc-1), liver cancer (Hep G2), breast cancer (MDA-MB-231), colon cancer (HCT116), kidney cancer (Caki-1), gastric cancer (SNU-1) and ovarian cancer (OVCAR-3) cells were cultured in a 96-well plate under conditions of 37° C. and 5% CO2 for 24 hours, and then each cancer cell was treated with ADP-ribose at each concentration. After culturing for 24 hours under conditions of 37° C. and 5% CO2 again, 10 μl of 3-(4,5-dimethylthiazol-2-yl)-2,5-diphenyltetrazolium bromide reagent was added to each well and reacted for 1 hour. After the reaction was completed, the reagent was removed, 200 μl of dimethyl sulfoxide was added to each well, and the absorbance was measured to determine the concentration of half-lethality and maximum lethality compared to untreated cells.
3×10^3 Hep G2 cells were cultured in a 96-well plate for 24 hours under conditions of 37° C. and 5% CO2, treated with ADP-ribose at concentrations of 0.125, 0.25, 0.5, 1, 2, 4, 8, 16, and 32 μM, respectively, and cultured again for 24 hours under conditions of 37° C. and 5% CO2. Then, 10 μl of 3-(4,5-dimethylthiazol-2-yl)-2,5-diphenyltetrazolium bromide reagent was added to each well and reacted for 1 hour. After the reaction was completed, the reagent was removed, 200 μl of dimethyl sulfoxide was added to each well, and the absorbance was measured to confirm cell viability.

AsPC-1 cells = test: Change over time in intracellular ADP-ribose, radiation versus ADP-ribose treatment (ELISA); type: cell-based; conditions: AsPC-1, 2 μM ADP-ribose, even after 24 hours; after radiation back to untreated level from 16 hours
Description: Brain cancer (U-87MG), kidney cancer (Caki-1), pancreatic cancer (AsPC-1), or breast cancer (MDA-MB-231) cells were cultured in a 6-well plate, respectively, and the cells were divided into the untreated group, the radiation-treated group, and the ADP-ribose-treated group. Irradiation was performed using an X-Rad 320 irradiator (Precision X-ray, North Branford, CT, USA), and cancer cells were treated with a total of 1, 2, and 5 Gy at a dose rate of 300 kVp and 150 cGy/min using an X-ray beam filter composed of 12.5 mA and 2.0 mm Al, respectively. Before treatment and at 4, 8, 16, and 24 hours after treatment, the medium was removed, the cells were washed with phosphate-buffered saline, and then RIPA buffer was added and the products were left on ice for 20 minutes. After scraping the cells, the cells were put in a centrifuge tube and centrifuged for 10 minutes at 10,000 g and 4° C. The supernatant was obtained, and 1% SDS was added, and then the reaction product was boiled at 100° C. for 5 minutes and cooled on ice. The supernatant was centrifuged again at 10,000 g and 4° C. for 10 minutes to obtain the final supernatant, and ADP-ribose was quantitatively analyzed using an ELISA analysis kit (Cell Biolabs, Inc., San Diego, CA, USA). […]

[3] = test system: Lung cancer (H1975) cells; test: Xenograft model, combination with anti-cancer drug, tumor volume; type: in vivo, BALB/c nude mice
Description: as §1
Lung cancer (H1975) cells (1×10^7) were inoculated into 5-week-old BALB/c nude mice on the back flank, and the mice were divided into three groups: the control group (Control), single oral administration of 1 mg/kg of osimertinib, and combination administration of osimertinib+10 mg/kg of ADP-ribose. When the tumors were grown to a volume of approximately 150 mm^3, osimertinib was administered orally twice a week, and ADP-ribose at 10 mg/kg was injected subcutaneously 3 times a week. The tumor size was measured using a digital caliper, and the results of changes in tumor volume were compared by the group.

[4] = test system: Lung cancer (H1975) cells; test: Cell death by combination treatment with anti-cancer drug (MTT); type: cell-based; conditions: Homo sapiens, NCI-H1975; H1975, ADP-ribose 1.6 μM in combination with osimertinib 1 nM, 24 hours, P<0.001
[5] = ADP-ribose 10 mg/kg s.c. + 2 Gy radiation, P<0.001
[6] = ADP-ribose 10 mg/kg s.c. in combination with gemcitabine 50 mg/kg, P<0.001
[7] = ADP-ribose 10 mg/kg s.c. in combination with osimertinib 1 mg/kg, P<0.001

Nc1ncnc2c1ncn2[C@@H]1O[C@H](COP(=O)(O)OP(=O)(O)OC[C@H]2O[C@@H](O)C(O)C2O)C(O)C1O (stereo partly drawn) [ADP-ribose, adenosine diphosphate ribose]
survival rate of cancer cells (HCT116 cells): about 14% | reduction of tumor volume compared to the control group [1, 5]: about 69.1% | reduction of tumor volume compared to the group treated with 2 Gy dose of radiation alone [1, 5]: about 57.3% | final tumor volume ([1]; ADP-ribose 10 mg/kg subcutaneous 3 times a week + 2 Gy radiation, control about 2384.3, 2 Gy alone about 1725.5): about 736.2 mm^3 | reduction of tumor volume compared to the control group [2, 6]: about 80% | reduction of tumor volume compared to the group treated with gemcitabine alone [2, 6]: about 76% | final tumor volume ([2]; ADP-ribose 10 mg/kg subcutaneous 3 times a week in combination with gemcitabine 50 mg/kg, control about 2174.3): about 444.3 mm^3 | maximum lethal dose (concentration at which almost all cells were killed) (Hep G2 cells; Hep G2, 24 hours, MTT): 32 µM | cancer cell growth under a microscope (Hep G2 cells; Hep G2, ADP-ribose treated vs control, FIG. 5A): inhibited from growing and killed | IC50 (Hep G2 cells; Homo sapiens, HepG2, 24 h, read-out: half-lethal dose (concentration at which about half of the cells were killed)): ~4 µM | amount of ADP-ribose in the cells over time compared to the control group (AsPC-1 cells): maintained a significant (P<0.001) increase | reduction of tumor volume compared to the control group [3, 7]: about 81% | reduction of tumor volume compared to the group treated with osimertinib alone [3, 7]: about 77% | final tumor volume ([3]; ADP-ribose 10 mg/kg subcutaneous 3 times a week in combination with osimertinib 1 mg/kg, control about 2265.5): about 424.7 mm^3 | viability at 1.6 µM [4]: ~0.9%
